Results from patent publication US9149038B2, “4-amino-6-(heterocyclic)picolinates and 6-amino-2-(heterocyclic)pyrimidine-4-carboxylates and their use as herbicides” (Dow AgroSciences LLC, priority 2013, dated 2015).
Where two headings read alike, the source gives them in different places.

Legend:
[1] = system: Key Grass and Sedge Weeds as well as Grass Crops; experiment: Post-Emergent Test II: postemergent herbicidal activity, visual rating after 14 d (Table 8); format: in vivo; conditions: post-emergence, 336 h; for pest or weed control at 35 g/ha: 35 g ai/ha; for pest or weed control at 70 g/ha: 70 g ai/ha; for pest or weed control at 140 g/ha: 140 g ai/ha
Outline: (§1)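 Post-emergence foliar spray, 187 L/ha, first/second true leaf stage plants in potting mix (pH 6.0-6.8). Rates: top rate and 2-fold serial dilutions to 1/16×. Solvent-blank controls. Readout: visual % kill at 14 d.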

[2] = system: Key Broadleaf Weed and Crop Species; experiment: Post-Emergent Test II: postemergent herbicidal activity, visual rating after 14 d (Table 7); format: in vivo; conditions: post-emergence, 336 h; for pest or weed control at 35 g/ha: 35 g ai/ha; for pest or weed control at 70 g/ha: 70 g ai/ha; for pest or weed control at 140 g/ha: 140 g ai/ha
Outline: as §1

[3] = barnyardgrass (Echinochloa crus-galli), read-out: Visual Growth Reduction (%) 14 Days After Application ECHCG
[4] = giant foxtail (Setaria faberi), read-out: Visual Growth Reduction (%) 14 Days After Application SETFA
[5] = maize, corn (Zea mays), read-out: Visual Growth Reduction (%) 14 Days After Application ZEAMX
[6] = rice (Oryza sativa), read-out: Visual Growth Reduction (%) 14 Days After Application ORYSA
[7] = wheat, spring (Triticum aestivum), read-out: Visual Growth Reduction (%) 14 Days After Application TRZAS
[8] = yellow nutsedge (Cyperus esculentus), read-out: Visual Growth Reduction (%) 14 Days After Application CYPES
[9] = lambsquarters (Chenopodium album), read-out: Visual Growth Reduction (%) 14 Days After Application CHEAL
[10] = oilseed rape, canola (Brassica napus), read-out: Visual Growth Reduction (%) 14 Days After Application BRSNN
[11] = redroot pigweed (Amaranthus retroflexus), read-out: Visual Growth Reduction (%) 14 Days After Application AMARE
[12] = sunflower (Helianthus annuus), read-out: Visual Growth Reduction (%) 14 Days After Application HELAN
[13] = velvetleaf (Abutilon theophrasti), read-out: Visual Growth Reduction (%) 14 Days After Application ABUTH
[14] = wild poinsettia (Euphorbia heterophylla), read-out: Visual Growth Reduction (%) 14 Days After Application EPHHL

| Structure (SMILES) | pest or weed control at 35 g/ha [1, 3] [%] | pest or weed control at 70 g/ha [1, 3] [%] | pest or weed control at 140 g/ha [1, 3] [%] | pest or weed control at 35 g/ha [1, 4] [%] | pest or weed control at 70 g/ha [1, 4] [%] | pest or weed control at 140 g/ha [1, 4] [%] | pest or weed control at 35 g/ha [1, 5] [%] | pest or weed control at 70 g/ha [1, 5] [%] | pest or weed control at 140 g/ha [1, 5] [%] | pest or weed control at 35 g/ha [1, 6] [%] | pest or weed control at 70 g/ha [1, 6] [%] | pest or weed control at 140 g/ha [1, 6] [%] | pest or weed control at 35 g/ha [1, 7] [%] | pest or weed control at 70 g/ha [1, 7] [%] | pest or weed control at 140 g/ha [1, 7] [%] | pest or weed control at 35 g/ha [1, 8] [%] | pest or weed control at 70 g/ha [1, 8] [%] | pest or weed control at 140 g/ha [1, 8] [%] | pest or weed control at 35 g/ha [2, 9] [%] | pest or weed control at 70 g/ha [2, 9] [%] | also measured |
| --- | --- | --- | --- | --- | --- | --- | --- | --- | --- | --- | --- | --- | --- | --- | --- | --- | --- | --- | --- | --- | --- |
| Nc1c(Cl)c(C(=O)O)nc(-c2cc3c(cc2F)OC(F)(F)O3)c1Cl [Compound 3] | 0 to 29 | 0 to 29 | 0 to 29 | 0 to 29 | 0 to 29 | 0 to 29 | 0 to 29 | 0 to 29 | 0 to 29 | 0 to 29 | 0 to 29 | 0 to 29 | 0 to 29 | 0 to 29 | 0 to 29 | 0 to 29 | 0 to 29 | 0 to 29 | 0 to 29 | 0 to 29 | pest or weed control at 140 g/ha [2, 9]: 45 to 59%; pest or weed control at 35 g/ha [2, 10]: 0 to 29%; pest or weed control at 70 g/ha [2, 10]: 0 to 29%; pest or weed control at 140 g/ha [2, 10]: 0 to 29%; pest or weed control at 35 g/ha [2, 11]: 0 to 29%; pest or weed control at 70 g/ha [2, 11]: 95 to 100%; pest or weed control at 140 g/ha [2, 11]: 95 to 100%; pest or weed control at 35 g/ha [2, 12]: 0 to 29%; pest or weed control at 70 g/ha [2, 12]: 0 to 29%; pest or weed control at 140 g/ha [2, 12]: 85 to 94%; pest or weed control at 35 g/ha [2, 13]: 0 to 29%; pest or weed control at 70 g/ha [2, 13]: 0 to 29%; pest or weed control at 140 g/ha [2, 13]: 0 to 29%; pest or weed control at 35 g/ha [2, 14]: 0 to 29%; pest or weed control at 70 g/ha [2, 14]: 0 to 29%; pest or weed control at 140 g/ha [2, 14]: 0 to 29% |
| COC(=O)c1nc(-c2ccc3c(c2F)OC(F)(F)O3)c(Cl)c(N)c1Cl [Compound 4] | 0 to 29 | 0 to 29 | 0 to 29 | 0 to 29 | 0 to 29 | 0 to 29 | 0 to 29 | 0 to 29 | 0 to 29 | 0 to 29 | 0 to 29 | 0 to 29 | 0 to 29 | 0 to 29 | 0 to 29 | 0 to 29 | 0 to 29 | 0 to 29 | 0 to 29 | 0 to 29 | pest or weed control at 140 g/ha [2, 9]: 0 to 29%; pest or weed control at 35 g/ha [2, 10]: 0 to 29%; pest or weed control at 70 g/ha [2, 10]: 0 to 29%; pest or weed control at 140 g/ha [2, 10]: 0 to 29%; pest or weed control at 35 g/ha [2, 11]: 0 to 29%; pest or weed control at 70 g/ha [2, 11]: 0 to 29%; pest or weed control at 140 g/ha [2, 11]: 0 to 29%; pest or weed control at 35 g/ha [2, 12]: 0 to 29%; pest or weed control at 70 g/ha [2, 12]: 45 to 59%; pest or weed control at 140 g/ha [2, 12]: 60 to 74%; pest or weed control at 35 g/ha [2, 13]: 0 to 29%; pest or weed control at 70 g/ha [2, 13]: 0 to 29%; pest or weed control at 140 g/ha [2, 13]: 0 to 29%; pest or weed control at 35 g/ha [2, 14]: 0 to 29%; pest or weed control at 70 g/ha [2, 14]: 0 to 29%; pest or weed control at 140 g/ha [2, 14]: 0 to 29% |
| Nc1c(Cl)c(C(=O)O)nc(-c2ccc3c(c2F)OC(F)(F)O3)c1Cl [Compound 5] | 0 to 29 | 0 to 29 | 0 to 29 | 0 to 29 | 0 to 29 | 0 to 29 | 0 to 29 | 0 to 29 | 0 to 29 | 0 to 29 | 0 to 29 | 0 to 29 | 0 to 29 | 0 to 29 | 0 to 29 | 0 to 29 | 0 to 29 | 0 to 29 | 0 to 29 | 0 to 29 | pest or weed control at 140 g/ha [2, 9]: 0 to 29%; pest or weed control at 35 g/ha [2, 10]: 45 to 59%; pest or weed control at 70 g/ha [2, 10]: 60 to 74%; pest or weed control at 140 g/ha [2, 10]: 60 to 74%; pest or weed control at 35 g/ha [2, 11]: 0 to 29%; pest or weed control at 70 g/ha [2, 11]: 0 to 29%; pest or weed control at 140 g/ha [2, 11]: 0 to 29%; pest or weed control at 35 g/ha [2, 12]: 30 to 44%; pest or weed control at 70 g/ha [2, 12]: 30 to 44%; pest or weed control at 140 g/ha [2, 12]: 45 to 59%; pest or weed control at 35 g/ha [2, 13]: 0 to 29%; pest or weed control at 70 g/ha [2, 13]: 0 to 29%; pest or weed control at 140 g/ha [2, 13]: 0 to 29%; pest or weed control at 35 g/ha [2, 14]: 0 to 29%; pest or weed control at 70 g/ha [2, 14]: 0 to 29%; pest or weed control at 140 g/ha [2, 14]: 0 to 29% |
| COC(=O)c1nc(-c2ccc3c(c2)OC(F)(F)O3)c(F)c(N)c1Cl [Compound 6] | 95 to 100 | 95 to 100 | 95 to 100 | 60 to 74 | 75 to 84 | 85 to 94 | 85 to 94 | 85 to 94 | 85 to 94 | 30 to 44 | 45 to 59 | 45 to 59 | 45 to 59 | 60 to 74 | 60 to 74 | 95 to 100 | 95 to 100 | 95 to 100 | 95 to 100 | 95 to 100 | pest or weed control at 140 g/ha [2, 9]: 95 to 100%; pest or weed control at 35 g/ha [2, 10]: 75 to 84%; pest or weed control at 70 g/ha [2, 10]: 85 to 94%; pest or weed control at 140 g/ha [2, 10]: 85 to 94%; pest or weed control at 35 g/ha [2, 11]: 75 to 84%; pest or weed control at 70 g/ha [2, 11]: 75 to 84%; pest or weed control at 140 g/ha [2, 11]: 95 to 100%; pest or weed control at 35 g/ha [2, 12]: 85 to 94%; pest or weed control at 70 g/ha [2, 12]: 85 to 94%; pest or weed control at 140 g/ha [2, 12]: 95 to 100%; pest or weed control at 35 g/ha [2, 13]: 95 to 100%; pest or weed control at 70 g/ha [2, 13]: 95 to 100%; pest or weed control at 140 g/ha [2, 13]: 95 to 100%; pest or weed control at 35 g/ha [2, 14]: 85 to 94%; pest or weed control at 70 g/ha [2, 14]: 85 to 94%; pest or weed control at 140 g/ha [2, 14]: 95 to 100% |
